Counter-ions that a name gives are not always drawn.
Molecular target: T1, G9a (Homo sapiens, UniProt Q96KQ7)
T1 sequence (Q96KQ7 1-1210): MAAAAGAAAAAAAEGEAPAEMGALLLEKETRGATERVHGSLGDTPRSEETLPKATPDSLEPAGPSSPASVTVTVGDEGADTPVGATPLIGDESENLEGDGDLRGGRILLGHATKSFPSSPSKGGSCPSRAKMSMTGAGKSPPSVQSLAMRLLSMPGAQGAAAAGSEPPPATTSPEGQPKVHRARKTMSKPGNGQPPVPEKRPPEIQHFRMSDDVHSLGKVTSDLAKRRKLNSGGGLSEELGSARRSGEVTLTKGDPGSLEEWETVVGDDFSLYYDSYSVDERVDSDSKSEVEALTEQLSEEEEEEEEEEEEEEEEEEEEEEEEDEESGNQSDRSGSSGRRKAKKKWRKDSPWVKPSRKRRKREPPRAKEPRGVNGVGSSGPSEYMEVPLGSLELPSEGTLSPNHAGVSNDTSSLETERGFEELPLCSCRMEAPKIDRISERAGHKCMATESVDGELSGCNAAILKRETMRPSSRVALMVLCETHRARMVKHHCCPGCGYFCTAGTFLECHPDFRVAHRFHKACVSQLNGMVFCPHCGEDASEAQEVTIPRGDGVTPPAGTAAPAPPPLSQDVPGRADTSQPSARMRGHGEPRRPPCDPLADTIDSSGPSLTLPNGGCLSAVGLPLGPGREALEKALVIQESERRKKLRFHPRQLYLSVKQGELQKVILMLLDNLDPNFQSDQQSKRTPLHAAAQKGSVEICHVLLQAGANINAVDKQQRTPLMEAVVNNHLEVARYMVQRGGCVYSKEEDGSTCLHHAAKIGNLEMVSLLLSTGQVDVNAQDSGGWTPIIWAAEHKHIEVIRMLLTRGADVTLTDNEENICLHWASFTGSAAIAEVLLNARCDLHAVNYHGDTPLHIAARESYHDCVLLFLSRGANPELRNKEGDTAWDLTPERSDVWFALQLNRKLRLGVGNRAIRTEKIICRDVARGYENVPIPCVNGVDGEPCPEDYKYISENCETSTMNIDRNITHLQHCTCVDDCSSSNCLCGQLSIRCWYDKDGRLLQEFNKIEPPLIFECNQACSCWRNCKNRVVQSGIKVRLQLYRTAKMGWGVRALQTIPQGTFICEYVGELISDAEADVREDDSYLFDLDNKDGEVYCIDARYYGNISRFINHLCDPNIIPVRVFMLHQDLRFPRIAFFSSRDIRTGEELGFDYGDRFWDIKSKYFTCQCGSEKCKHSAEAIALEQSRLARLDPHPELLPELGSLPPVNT
Assay: G9a AlphaLISA enzymatic activity assay
Assay type: biochemical
Settings: 0.15 nM G9a, 10 uM S-adenosyl-methionine, 100 nM biotinylated histone 3 peptide (1-21), 1 h room temperature
From the text: The G9a AlphaLISA assay was used to detect the methyl modifications of a biotinylated histone H3 peptide by the compounds. These modifications are done by the histone methyl transferase activity of the G9a enzyme. The assay consists of reading a chemiluminescent signal at 615 nm; this signal is generated by a laser excitation at 680 nm that transfers a reactive singlet oxygen between the donor beads and acceptor beads. Donor beads are streptavidin conjugated and bind to the biotin on the peptide. Acceptor beads are conjugated with an antibody that recognizes the specific G9a methyl mark on the peptide. If there is a methyl mark on the peptide, the acceptor beads will bind to the peptide. Upon binding, the acceptor beads will be in close proximity (<200 nm) of the donor beads and when the donor beads are excited, the transfer of the oxygen can occur and a strong signal will be generated. If there is no methyl mark, the interaction between beads will not occur and signal will be at background levels.
For the assay, the following buffer was used to set up reactions: 50 mM Tris-HCl pH9, 50 mM NaCl, 0.01% Tween-20 and 1 mM DTT (added fresh prior to starting the reactions). The assay is set up by adding a final concentration of 0.15 nM G9a, 10 uM S-adenosyl-methionine and, 100 nM biotinylated histone 3 peptide (1-21). The reaction is incubated at room temperature for 1 h, and subsequently quenched by the addition of the acceptor beads (anti-H3k9me2 AlphaLISA acceptor beads, PerkinElmer #AL117) at a final concentration of 20 ug/mL. The acceptor beads are incubated for 1 h. After 1 h, the donor beads are added at a final concentration of 20 ug/mL (Alpha Streptavidin donor beads, PerkinElmer #6760002). Donor beads are incubated for 0.5 h. Both donor and acceptor beads are resuspended in AlphaLISA 5× Epigenetics Buffer 1 Kit (PerkinElmer #AL008) prior to addition to the reaction. All manipulations and incubations with the donor and acceptor beads are done in subdued light. Signal is detected in an EnVision plate reader in Alpha mode (See ACS Med Chem Lett. 2014 Jan. 2; 5(2):205-9)
Percent inhibition was calculated for each compound dilution and the concentration that produced 50% inhibition was calculated. This value is presented as the IC50.

Row | Compound | IC50 [nM]
1 | COc1cc2c(cc1OCCCN1CCCC1)[nH]c1ccnc(OC3CCOCC3)c12 [Compound 73, 1-(3-{[8-methoxy-1-(oxan-4-yloxy)-5H-pyrido[4,3-b]indol-7-yl]oxy}propyl)pyrrolidine trifluoroacetate] | 960
2 | COc1cc2c(cc1OCCCN1CCCC1)[nH]c1ccnc(OC3CCNC3)c12 (stereo not drawn) [Compound 74, 3-({8-methoxy-7-[3-(pyrrolidin-1-yl)propoxy]-5H-pyrido[4,3-b]indol-1-yl}oxy)pyrrolidine bis(2,2,2-trifluoroacetate)] | 6.7
3 | COc1cc2c(cc1OCCCN1CCCC1)[nH]c1ccnc(OC(C)C)c12 [Compound 75, 1-(3-{[8-methoxy-1-(propan-2-yloxy)-5H-pyrido[4,3-b]indol-7-yl]oxy}propyl)pyrrolidine trifluoroacetate] | 1000
4 | COc1cc2c(cc1OCCCN1CCCC1)[nH]c1ccnc(-n3ccnc3)c12 [Compound 76, 1-{8-methoxy-7-[3-(pyrrolidin-1-yl)propoxy]-5H-pyrido[4,3-b]indol-1-yl}-1H-imidazole trifluoroacetate] | 960
5 | COc1cc2c(cc1OCCCN1CCCC1)[nH]c1ccnc(-n3cccn3)c12 [Compound 77, 1-[8-methoxy-7-[3-(pyrrolidin-1-yl)propoxy]-5H-pyrido[4,3-b]indol-1-yl]-1H-pyrazole trifluoroacetate] | 2500
6 | COc1cc2c(cc1OCCCN1CCCC1)[nH]c1ccnc(-c3cncs3)c12 [Compound 78, 5-{8-methoxy-7-[3-(pyrrolidin-1-yl)propoxy]-5H-pyrido[4,3-b]indol-1-yl}-1,3-thiazole trifluoroacetate] | 260
7 | COc1cc2c(cc1OCCCN1CCCC1)[nH]c1cc(CO)ncc12 [Compound 79, {8-methoxy-7-[3-(pyrrolidin-1-yl)propoxy]-5H-pyrido[4,3-b]indol-3-yl}methanol trifluoroacetate] | 140
8 | COc1cc2c(cc1OCCCN1CCCC1)[nH]c1cc(O)ncc12 [Compound 80, 8-methoxy-7-(3-(pyrrolidin-1-yl)propoxy)-5H-pyrido[4,3-b]indol-3-ol formate] | > 10000
9 | COc1cc2c(cc1OCCCN1CCCC1)[nH]c1ccnc(-c3cn[nH]c3)c12 [Compound 81, 4-[8-methoxy-7-[3-(pyrrolidin-1-yl)propoxy]-5H-pyrido[4,3-b]indol-1-yl]-1H-pyrazole hydrochloride] | 22
10 | COc1cc2c(cc1OCCCN1CCCC1)[nH]c1ccnc(CO)c12 [Compound 82, 8-methoxy-7-[3-(pyrrolidin-1-yl)propoxy]-5H-pyrido[4,3-b]indol-1-yl]methanol trifluoroacetate] | 4.5
11 | COc1cc2c(cc1OCCCN1CCCC1)[nH]c1ccnc(-c3cnc[nH]3)c12 [Compound 84, 1-(1H-imidazol-5-yl)-8-methoxy-7-(3-(pyrrolidin-1-yl)propoxy)-5H-pyrido[4,3-b]indole trifluoroacetate] | 17
12 | CCN(CC)c1nccc2[nH]c3cc(OCCCN4CCCC4)c(OC)cc3c12 [Compound 85, N,N-diethyl-8-methoxy-7-[3-(pyrrolidin-1-yl)propoxy]-5H-pyrido[4,3-b]indol-1-amine bis formate] | 17
13 | COc1cc2c(cc1OCCCN1CCCC1)[nH]c1c(Cl)cnc(N3CCCC3)c12 [Compound 86, 1-{4-chloro-8-methoxy-7-[3-(pyrrolidin-1-yl)propoxy]-5H-pyrido[4,3-b]indol-1-yl}pyrrolidine hydrochloride] | 180
14 | COc1cc2c(cc1OCC1CCCNC1)[nH]c1ccncc12 (stereo not drawn) [Compound 87, 3-[({8-methoxy-5H-pyrido[4,3-b]indol-7-yl}oxy)methyl]piperidine hydrochloride] | 240
15 | COc1cc2c(cc1OCCCN(C)C)[nH]c1ccncc12 [Compound 88, [3-({8-methoxy-5H-pyrido[4,3-b]indol-7-yl}oxy)propyl]dimethylamine hydrochloride] | 12
16 | COc1cc2c(cc1OCCCN1CCCC1)[nH]c1c(C)cnc(N3CCCC3)c12 [Compound 89, 1-{8-methoxy-4-methyl-7-[3-(pyrrolidin-1-yl)propoxy]-5H-pyrido[4,3-b]indol-1-yl}pyrrolidine hydrochloride] | 12
17 | COc1cc2c(cc1OCCCN(C)C)[nH]c1ccnc(C)c12 [Compound 90, [3-({8-methoxy-1-methyl-5H-pyrido[4,3-b]indol-7-yl}oxy)propyl]dimethylamine hydrochloride] | 7.1
18 | CCc1nccc2[nH]c3cc(OCCCN(C)C)c(OC)cc3c12 [Compound 91, [3-({1-ethyl-8-methoxy-5H-pyrido[4,3-b]indol-7-yl}oxy)propyl]dimethylamine hydrochloride] | 6.7
19 | COc1cc2c(cc1OCCCN(C)C)[nH]c1ccnc(N3CCCC3)c12 [Compound 92, (3-{[8-methoxy-1-(pyrrolidin-1-yl)-5H-pyrido[4,3-b]indol-7-yl]oxy}propyl)dimethylamine hydrochloride] | 51
20 | COc1cc2c(cc1OCCCN(C)C)[nH]c1ccnc(N(C)C)c12 [Compound 93, 7-[3-(dimethylamino)propoxy)-8-methoxy-N,N-dimethyl-5H-pyrido[4,3-b]indol-1-amine hydrochloride] | 61
21 | COc1cc2c3cnccc3n(C)c2cc1OCCCN1CCCC1 [Compound 94, 1-[3-({8-methoxy-5-methyl-5H-pyrido[4,3-b]indol-7-yl}oxy)propyl]pyrrolidine hydrochloride] | 54
22 | COc1cc2c(cc1OCCCN(C)C)[nH]c1ccnc(SC)c12 [Compound 95, (3-{[8-methoxy-1-(methylsulfanyl)-5H-pyrido[4,3-b]indol-7-yl]oxy}propyl)dimethylamine hydrochloride] | 560
23 | COCCOc1nccc2[nH]c3cc(OCCCN4CCCC4)c(OC)cc3c12 [Compound 96, 1-(3-{[8-methoxy-1-(2-methoxyethoxy)-5H-pyrido[4,3-b]indol-7-yl]oxy}propyl)pyrrolidine trifluoroacetate] | 3300
24 | COc1cc2c(cc1OCCCN1CCCC1)[nH]c1ccnc(O)c12 [Compound 97, 8-methoxy-7-(3-(pyrrolidin-1-yl)propoxy)-5H-pyrido[4,3-b]indol-1-ol trifluoroacetate] | 68
25 | COc1cc2c(cc1OCCCN1CC3CC(C3)C1)[nH]c1ccncc12 [Compound 98, 3-[3-({8-methoxy-5H-pyrido[4,3-b]indol-7-yl}oxy)propyl]-3-azabicyclo[3.1.1]heptane hydrochloride] | 2800
26 | COc1cc2c(cc1OCCCN1CCCC1)[nH]c1cc(C)ncc12 [Compound 99, 1-[3-({8-methoxy-3-methyl-5H-pyrido[4,3-b]indol-7-yl}oxy)propyl]pyrrolidine hydrochloride] | 16
27 | COc1cc2c(cc1OCCCN1CCCC1)[nH]c1ccnc(OC)c12 [Compound 100, 1-[3-({1,8-dimethoxy-5H-pyrido[4,3-b]indol-7-yl}oxy)propyl]pyrrolidine hydrochloride] | 380

Source: US11111243B2, “Azaindole compounds as histone methyltransferase inhibitors” (GLOBAL BLOOD THERAPEUTICS, INC., priority 2017, dated 2021)
